Test results as given in US20090156575A1, “NOVEL DIAZASPIROALKANES AND THEIR USE FOR TREATMENT OF CCR8 MEDIATED DISEASES” (priority 2005, published 2009).
Structures can show the parent of a compound that is named as a salt. Where two headings read alike, the source gives them in different places.

Target: T1, human recombinant chemokine CCR8 receptor (Homo sapiens, UniProt P51685)
T1 construct: purchased Euroscreen ES-136-M; host or cells: CHO-K1 cells (transfected), membrane preparation
Test: CCL1 SPA binding assay
Conditions: membranes from CHO-K1 cells transfected with human CCR8, 125I CCL1 displacement, SPA beads
Method: Membranes from CHO-K1 cells transfected with human recombinant chemokine CCR8 receptor (ES-136-M) were purchased from Euroscreen. Membrane preparations are stored at −70 C in 7.5 mM Tris-Cl pH 7.5, 12.5 mM MgCl2, 0.3 mM EDTA, 1 mM EGTA, 250 mM sucrose until used.
The CCR8 membranes (50.6 mg/ml) were preincubated with Wheat Germ Agglutinin SPA beads (4.05 mg/ml) in assay buffer (50 mM HEPES, 1 mM CaCl2×2H2O, 5 mM MgCl2×6H2O, 75 mM NaCl, 0.1% BSA) at pH=7.4 for 2 hours on ice. A […] dose-response curve (final concentrations 50 μM, 16.7 μM, 5.6 μM, 1.9 μM, 0.62 μM, 0.21 μM, 0.069 μM, 0.023 μM) was prepared by diluting compounds by serial dilution 1:3 in DMSO. In the screening plate (Polystyrene NBS plates, Costar Corning 3604) 1 μl from the DMSO solutions of compounds was transferred into each well. 1 μl of DMSO was added to the blank control wells and 1 μl unlabeled CCL1 (300 nM) was added to background control wells. 50 μl of the SPA bead-membrane mixture was added into each well. Finally, 50 μl ([…]) ^125I CCL1 (2000 Ci/mM) was added to each well. Plates were then incubated at RT with shaking (700 rpm) for 90 minutes followed by 30 minutes at RT without shaking. The plate was read in a Wallac MicroBeta counter for 2 minutes/well.

T1 sequence (P51685 whole entry): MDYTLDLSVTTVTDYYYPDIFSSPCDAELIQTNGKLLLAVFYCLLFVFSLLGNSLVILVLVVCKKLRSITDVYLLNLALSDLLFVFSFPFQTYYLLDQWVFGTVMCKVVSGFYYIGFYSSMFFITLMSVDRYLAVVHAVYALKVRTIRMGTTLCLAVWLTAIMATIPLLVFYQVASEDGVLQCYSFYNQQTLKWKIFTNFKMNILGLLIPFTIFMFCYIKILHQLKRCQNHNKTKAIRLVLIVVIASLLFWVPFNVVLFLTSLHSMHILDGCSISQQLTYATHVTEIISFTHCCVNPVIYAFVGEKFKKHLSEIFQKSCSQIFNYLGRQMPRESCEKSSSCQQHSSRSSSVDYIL

SMILES	IC50 (read-out: IC50) [nM]	IC50 (IC50 (nM)) [nM]
CC1(C)Cc2cccc(CN3CCC4(CC3)CCN(C(=O)c3cccc5c3NC(=O)C5=O)CC4)c2O1 [Example 63, 7-({9-[(2,2-dimethyl-2,3-dihydro-1-benzofuran-7-yl)methyl]-3,9-diazaspiro[5.5]undec-3-yl}carbonyl)-1H-indole-2,3-dione Trifluoroacetate]	143	–
CC1(C)Cc2c(CN3CCC4(CC3)CCN(C(=O)c3ccncc3CC(N)=O)CC4)cccc2O1 [Example 159, 2-[4-({9-[(2,2-dimethyl-2,3-dihydro-1-benzofuran-4-yl)methyl]-3,9-diazaspiro[5.5]undec-3-yl}carbonyl)pyridin-3-yl]acetamide]	87	–
CC1(C)Oc2cccc(CN3CCC4(CC3)CCN(C(=O)c3ccc(N)[nH]c3=O)CC4)c2O1 [Example 133, 6-amino-3-({9-[(2,2-dimethyl-1,3-benzodioxol-4-yl)methyl]-3,9-diazaspiro[5.5]undec-3-yl}carbonyl)pyridin-2(1H)-one]	84	–
CC1(C)COc2cccc(CN3CCC4(CC3)CCN(C(=O)c3ccncc3CC(N)=O)CC4)c2O1 [Example 143, 2-[4-({9-[(3,3-dimethyl-2,3-dihydro-1,4-benzodioxin-5-yl)methyl]-3,9-diazaspiro[5.5]undec-3-yl}carbonyl)pyridin-3-yl]acetamide Ditrifluoroacetate]	32	–
CC1(C)Cc2cccc(CN3CCC4(CC3)CCN(C(=O)c3ccccc3CC(=O)N3CCC[C@@H]3C(N)=O)CC4)c2O1 [Example 18, 1-{[2-({9-[(2,2-dimethyl-2,3-dihydro-1-benzofuran-7-yl)methyl]-3,9-diazaspiro[5.5]undec-3-yl}carbonyl)phenyl]acetyl}-D-prolinamide]	57	–
CC1(C)Cc2c(CN3CCC4(CC3)CCN(C(=O)c3ccc(N)cn3)CC4)cccc2O1 [Example 86, 6-({9-[(2,2-dimethyl-2,3-dihydro-1-benzofuran-4-yl)methyl]-3,9-diazaspiro[5.5]undec-3-yl}carbonyl)pyridin-3-amine Trifluoroacetate]	–	8
CC1(C)Cc2cccc(CN3CCC4(CC3)CCN(C(=O)c3ccc5cc[nH]c5c3)CC4)c2O1 [Example 68, 3-[(2,2-dimethyl-2,3-dihydro-1-benzofuran-7-yl)methyl]-9-(1H-indol-6-ylcarbonyl)-3,9-diazaspiro[5.5]undecane Acetate]	8	–
COC(=O)Cc1ccccc1C(=O)N1CCC2(CCN(Cc3cccc4c3OC(C)(C)C4)CC2)CC1 [Example 5, Methyl [2-({9-[(2,2-dimethyl-2,3-dihydro-1-benzofuran-7-yl)methyl]-3,9-diazaspiro[5.5]undec-3-yl}carbonyl)phenyl]acetate]	9	–
CC1(C)Cc2cccc(CN3CCC4(CC3)CCN(C(=O)c3ccno3)CC4)c2O1 [Example 31, 3-[(2,2-dimethyl-2,3-dihydro-1-benzofuran-7-yl)methyl]-9-(isoxazol-5-ylcarbonyl)-3,9-diazaspiro[5.5]undecane Trifluoroacetate]	10	–
CC1(C)Cc2c(CN3CCC4(CC3)CN(C(=O)c3ccnc(N)n3)C4)cccc2O1 [Example 157, 4-({7-[(2,2-dimethyl-2,3-dihydro-1-benzofuran-4-yl)methyl]-2,7-diazaspiro[3.5]non-2-yl}carbonyl)pyrimidin-2-amine]	50	–
CC1(C)COc2c(CN3CCC4(CC3)CCN(C(=O)c3ccncc3)CC4)cccc2O1 [Example 110, 3-[(2,2-dimethyl-2,3-dihydro-1,4-benzodioxin-5-yl)methyl]-9-isonicotinoyl-3,9-diazaspiro[5.5]undecane Trifluoroacetate]	53	–
CC1(C)Cc2cccc(CN3CCC4(CC3)CCN(C(=O)CCc3nc(-c5ccccn5)no3)CC4)c2O1 [Example 111, 3-[(2,2-dimethyl-2,3-dihydro-1-benzofuran-7-yl)methyl]-9-[3-(3-pyridin-2-yl-1,2,4-oxadiazol-5-yl)propanoyl]-3,9-diazaspiro[5.5]undecane]	104	–
CC1(C)Cc2cccc(CN3CCC4(CC3)CCN(C(=O)c3ccncc3)CC4)c2O1 [Example 1, 3-[(2,2-dimethyl-2,3-dihydro-1-benzofuran-7-yl)methyl]-9-isonicotinoyl-3,9-diazaspiro[5.5]undecane Trifluoroacetate]	12	–
CC1(C)Oc2cccc(CN3CCC4(CC3)CCN(C(=O)c3ncccc3N)CC4)c2O1 [Example 92, 2-({9-[(2,2-dimethyl-1,3-benzodioxol-4-yl)methyl]-3,9-diazaspiro[5.5]undec-3-yl}carbonyl)pyridin-3-amine]	23	–
COC(=O)Cc1ccccc1C(=O)N1CCC2(CCN(Cc3cccc4c3OC(C)(C)C4)CC2)CC1 [Example 181, Methyl [2-({9-[(2,2-dimethyl-2,3-dihydro-1-benzofuran-7-yl)methyl]-3,9-diazaspiro[5.5]undec-3-yl}carbonyl)phenyl]acetate]	72	–
CC1(C)Cc2c(CN3CCC4(CC3)CCN(C(=O)c3ccnc(N)n3)CC4)cccc2O1 [Example 124, 4-({9-[(2,2-dimethyl-2,3-dihydro-1-benzofuran-4-yl)methyl]-3,9-diazaspiro[5.5]undec-3-yl}carbonyl)pyrimidin-2-amine]	12	–
CC1(C)C=Cc2cccc(CN3CCC4(CC3)CN(C(=O)c3ccncc3)C4)c2O1 [Example 139, 7-[(2,2-dimethyl-2H-chromen-8-yl)methyl]-2-isonicotinoyl-2,7-diazaspiro[3.5]nonane]	70	–
CC1(C)COc2c(CN3CCC4(CC3)CCN(C(=O)c3ccc(N)cn3)CC4)cccc2O1 [Example 173, 6-({9-[(2,2-dimethyl-2,3-dihydro-1,4-benzodioxin-5-yl)methyl]-3,9-diazaspiro[5.5]undec-3-yl}carbonyl)pyridin-3-amine Trifluoroacetate]	21	–
CC1(C)Cc2cccc(CN3CCC4(CC3)CCN(C(=O)c3ccccc3NC(=O)C3CCCO3)CC4)c2O1 (stereo not shown) [Example 49, N-[2-({9-[(2,2-dimethyl-2,3-dihydro-1-benzofuran-7-yl)methyl]-3,9-diazaspiro[5.5]undec-3-yl}carbonyl)phenyl]tetrahydrofuran-2-carboxamide]	38	–
